In data set [1] the test system is S. aureus. Briefly: Stability to salt ions, pH, temperature and repeated freezing and thawing, read by agar diffusion. The data set is classed as physicochemical, Staphylococcus aureus. To be noted: n = 3. How it is done: […] Solutions with different pH values were prepared with HCl and NaOH, producing pH values of 4, 5, 6, 7, 8, 9, 10, and MPX was incubated in these solutions for 30 min. MPX solutions were also incubated at different temperatures for 30 min (0, 25, 50, 75, and 100°C). A 1 mg/mL MPX solution was repeatedly frozen and thawed 0, 2, 4, 6, 8, 10, and 12 times. Ten microlitres of each of the peptide solutions treated as described above was collected, and the changes in the antimicrobial activity of the AMPs were detected by the agar diffusion assay.

Data set [2] has as its system S. aureus ATCC 25923. Briefly: Time-killing curve (OD600 and plate counting). The class given is cell-based, Staphylococcus aureus. As to conditions: 37°C. The procedure:
S. aureus was cultivated, the OD600 of the bacterial solution was adjusted to approximately 1.0, and MPX (1×MIC, 4×MIC) was added. In addition, sterile water was used as a control. The samples were incubated with shaking at 37°C. The OD600 value of the bacterial solution was measured every 1 h, and plate counting was performed at the same time to obtain the antibacterial time-killing curve of MPX against S. aureus ATCC 25923 ([15]).

Data set [3] has as its target proteinase K (Parengyodontium album, UniProt P06873). Briefly: Protease stability assay with proteinase K, read by agar diffusion. The data set is classed as in vitro ADME. To be noted: MPX 1.3 μM, 37°C, 30 min. How it is done:
(§1) An MPX protease stability assay was performed in the following manner. MPX (1.3 μM) was mixed with equal volumes of proteinase K and trypsin at different concentrations. After incubating at 37°C for 30 min, the samples were incubated in a boiling water bath for 5 min to stop the protease reaction. The protease stability of MPX was detected by the agar diffusion assay.
A general note: In agar diffusion tests the substance spreads into inoculated agar from a disc or well.

In data set [4] the test system is trypsin. Briefly: Protease stability assay with trypsin, read by agar diffusion. The class given is in vitro ADME. As to conditions: MPX 1.3 μM, 37°C, 30 min. The procedure: as §1
Data set [5] has as its system S. aureus ATCC 25923 biofilm. Briefly: Crystal violet assay of biofilm formation. The class given is cell-based, Staphylococcus aureus. To be noted: MPX 0.5×MIC, 24 h at 37°C, p < 0.01, n = 3. The procedure:
An overnight culture of S. aureus was inoculated into a 96-well polystyrene microtiter plate at a ratio of 1%. MPX (0.25×MIC, 0.5×MIC and 1×MIC) was added to the wells. Sterile water was used as a control. The plates were incubated at 37°C for 24 h. The microplates were then washed 3 times with sterile PBS, and the cells were fixed with 70% methanol for 30 min. Then, the cells were stained with 1% Hucker crystal violet staining solution at room temperature for 5 min. The dyeing solution was aspirated, and the cells were rinsed with water until no color remained. Images were acquired after drying. Then, 100 μL of a 70% ethanol solution was added to each well to dissolve the residual dye, and a microplate reader was used to measure the absorbance at OD570 nm ([16]).

For data set [6], the system named is S. aureus ATCC 25923. Briefly: NPN uptake (membrane integrity). The class given is cell-based, Staphylococcus aureus. To be noted: MPX 0.02 μM (1×MIC), NPN 10 μM, ex 350 nm / em 420 nm, 0–10 min; comparator ampicillin 50 μg/mL. How it is done:
S. aureus ATCC 25923 was cultured overnight in a 96-well plate. An NPN solution was added to a final concentration of 10 μM. The solutions were mixed well and incubated for 20 min. MPX (1×MIC, 4×MIC) was added to the wells. Sterile water was used as the control, and ampicillin (Amp) ([…]/50 μg/mL) was used as the positive control. The excitation wavelength was 350 nm, the emission wavelength was 420 nm, and the fluorescence intensity was detected by a microplate reader ([13]).

Data set [7] deals with S. aureus ATCC 25923. Briefly: BCA protein assay of bacterial supernatant (protein leakage). The data set is classed as cell-based, Staphylococcus aureus. As to conditions: MPX (1×MIC, 4×MIC) for 5 min, BCA kit, P < 0.01, n = 3. How it is done:
S. aureus was cultured overnight, washed and resuspended in sterile PBS. MPX (1×MIC, 4×MIC) was added to the bacterial solution. Sterile water was added as a control. A peptide-only group was a negative control. The mixture was allowed to stand for 5 min, and the supernatant was collected after centrifugation. The effect of MPX on the permeability of S. aureus ATCC 25923 for protein was analyzed according to the instructions of the BCA kit.

The test system of data set [8] is S. aureus ATCC 25923. Briefly: Agar diffusion test of antibacterial activity. The class given is cell-based, Staphylococcus aureus. To be noted: 1 mg/mL MPX, 20 μL per well, overnight at 37°C; sterile water control had no zone. How it is done: The agar diffusion test was used to detect the antibacterial effect of MPX on S. aureus ATCC 25923. S. aureus ATCC 25923 was cultured overnight, and the supernatant was discarded by centrifugation. The bacteria were washed with sterile PBS, and resuspended in a smaller volume to concentrate the cells. Next, 50 μL of the bacterial solution was pipetted into 15 mL of agar and shaken gently to mix. The plate was poured, a puncher was used to make holes after the agar medium had solidified and 20 μL of 1 mg/mL MPX was added to the wells. Sterile water was used as a control. The plates were incubated overnight at 37°C and the results were observed.

In data set [9] the test system is S. aureus. The data set can be described thus: Propidium iodide uptake (fluorescence microscopy). The class given is cell-based, Staphylococcus aureus. To be noted: MPX 4×MIC for 0.5 h, compared with group without peptide. The procedure: S. aureus was centrifuged, washed, and resuspended in sterile PBS. MPX (4×MIC) was added to the bacterial solution. The bacteria were cultured with shaking at 37°C and then centrifuged and resuspended in PBS solution. The cells were incubated with propidium iodide (PI) stain for 10 min in the dark. The suspension was fixed on a clean glass slide and observed with a fluorescence microscope.

Data set [10] concerns S. aureus ATCC 25923 biofilm. Briefly: Biofilm observation by SEM and confocal laser microscopy (SYTO 9/PI). As to conditions: MPX 4×MIC added to 24 h biofilm. The data set is classed as cell-based, Staphylococcus aureus. The procedure:
S. aureus ATCC 25923 was cultivated as described above. After culturing in a 37°C incubator for 24 h, MPX (final concentration: 4×MIC) was added to the sample. […] S. aureus was washed 3 times with 0.85% NaCl to remove nucleic acids and other medium components. A LIVE/DEAD BacLight Bacterial Viability L-7012 Kit (Molecular Probes, Eugene, OR, USA), containing two component dyes (SYTO 9 and PI in a 1:1 mixture) in solution, was used prior to microscopy and quantitative assays according to the test instructions. A total of 3 μL of the dye mixture was added to each well, the wells were incubated at room temperature in the dark for 15 min, and the bacterial survival in the biofilm was observed by confocal laser microscopy.
A sterile slides were placed in 6-well cell culture plates and bacteria were allowed to grow naturally on the slides to form a biofilm. Overnight culture broth and fresh broth were added at a volume ratio of 1:100, and incubated at 37°C for 24 h. Different final concentrations of MPX (1×MIC, 4×MIC) were added, incubation was continued. Then, a 2.5% glutaraldehyde solution was added to each well, and the cells were fixed at room temperature for 30 min. The plate was rinsed 3 times with PBS for 10 min each time. Gradient dehydration was performed with increasing concentrations of an ethanol solution (30, 50, 70, 80, 90, 95, and 100%). […]

Data set [11] deals with S. aureus ATCC 25923. The data set can be described thus: DiSC3-5 assay for membrane potential. The data set is classed as cell-based, Staphylococcus aureus. To be noted: MPX 1×MIC. The procedure: Overnight-cultured S. aureus ATCC 25923 was centrifuged and resuspended in sterile PBS. A DiSC3-5 solution was added to a final concentration of 1 μM. The cells were incubated in the dark for 20 min. MPX (1×MIC, 2×MIC and 4×MIC) was added. Sterile water was used as the control, and AMP ([…]/50 μg/mL) was used as the positive control. The excitation wavelength was 622 nm, the emission wavelength was 670 nm, and the fluorescence intensity was detected by a microplate reader.

In data set [12] the test system is S. aureus ATCC 25923. Briefly: Electron microscopy (SEM, TEM) of bacterial morphology. The class given is cell-based, Staphylococcus aureus. How it is done: A sterile slides were placed in 6-well cell culture plates and bacteria were allowed to grow naturally on the slides to form a biofilm. Overnight culture broth and fresh broth were added at a volume ratio of 1:100, and incubated at 37°C for 24 h. Different final concentrations of MPX (1×MIC, 4×MIC) were added, incubation was continued. Then, a 2.5% glutaraldehyde solution was added to each well, and the cells were fixed at room temperature for 30 min. The plate was rinsed 3 times with PBS for 10 min each time. Gradient dehydration was performed with increasing concentrations of an ethanol solution (30, 50, 70, 80, 90, 95, and 100%). After ion spray gold coating, biofilm formation was observed by scanning electron microscopy (SEM) ([17]).
Transmission electron microscopy (TEM) was used to detect the bacterial structure changes after MPX acted on S. aureus ATCC 25923. S. aureus was cultured overnight. MPX was added to different final concentrations. The cells were incubated with shaking at 37°C for 2 h, and then sodium phosphotungstate was used for negative staining. The effect of AMPs on S. aureus was observed. Centrifugation, fixation, dehydration, soaking, embedding and polymerization, sectioning and staining of the culture were performed. Finally, a transmission electron microscope was used to observe the results.

The test system of data set [13] is A. pleuropneumoniae. To be noted: previous experiment of the same laboratory; cited from earlier work. From the text: S. aureus can cause a wide range of infections, which can lead to organ failure and death in severe cases. It is one of the most common pathogens in communities and hospitals worldwide. The emergence and rapid spread of methicillin-resistant S. aureus strains have produced great challenges for clinical treatment. According to reports, patients with methicillin-resistant S. aureus infection have an increased clinical risk, especially an increased risk of mortality ([18]). Therefore, we must strengthen the prevention of MDR S. aureus infection, find effective alternatives to antibiotics, and ide ...

Where no end group is shown, it is not given here.

Sequence of proteinase K (P06873 106-384, species assumed): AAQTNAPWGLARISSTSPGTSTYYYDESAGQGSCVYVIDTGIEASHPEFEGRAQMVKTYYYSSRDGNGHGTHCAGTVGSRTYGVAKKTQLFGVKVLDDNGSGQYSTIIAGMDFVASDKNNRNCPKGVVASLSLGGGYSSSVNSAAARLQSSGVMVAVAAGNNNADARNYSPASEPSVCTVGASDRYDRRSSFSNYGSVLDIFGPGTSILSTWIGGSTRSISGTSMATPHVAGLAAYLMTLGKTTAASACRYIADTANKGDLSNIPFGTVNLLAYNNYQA

For the substance INWKGIAAMAKKLL-NH2 [MPX], in data set [1] (0, 25, 50, 75 and 100°C for 30 min), the “effect of temperature on antibacterial activity of MPX (thermal stability)” value was “basically no effect”. For the same substance, the “effect of repeated freezing and thawing on antimicrobial activity of MPX” value in [1] (1 mg/mL MPX frozen and thawed 0–12 times) was “did not change significantly”. In addition, in data set [1] (CaCl2 50, 100, 150, 200 and 250 mmol/mL, incubated 30 min), the “effect of CaCl2 on antibacterial activity of MPX” value was “no significant effect”. The “effect of KCl on antibacterial activity of MPX” value in data set [1] (KCl 50, 100, 150, 200 and 250 mmol/mL, incubated 30 min) is “little effect”. Moreover, the “effect of MgCl2 on antibacterial activity of MPX” value in data set [1] (MgCl2 50, 100, 150, 200 and 250 mmol/mL, incubated 30 min) is reported as “no significant effect”. Besides, in data set [1] (NaCl 50, 100, 150, 200 and 250 mmol/mL, incubated 30 min), the “effect of NaCl on antibacterial activity of MPX” value is recorded as “little effect”. The “effect of pH on MPX activity” value in [1] (pH 4–10 (HCl/NaOH), incubated 30 min) is “basically no effect”. Also, the “inhibition in killing curve” value in [2] (MPX 1×MIC, within 5 h) is “relatively stable inhibition”. For the same substance, in data set [2] (MPX 4×MIC, within 1 h, start OD600 approx. 1.0, plate counting, n = 3), the “bacteria killed (killing curve)” value is 99.9%. The “effect of proteinase K on antibacterial activity” value in data set [3] (40 μg/mL proteinase K, agar diffusion, n = 3) is “significantly reduced”. Further, the “residual antibacterial activity after proteinase K” value in data set [3] (100 μg/mL proteinase K, equal volumes, agar diffusion vs S. aureus ATCC 25923, n = 3) is 66.3%. Also, the “effect of trypsin on antibacterial activity” value in data set [4] (20 μg/mL trypsin, agar diffusion, n = 3) is given as “significantly reduce”. The “residual antibacterial activity after trypsin” value in data set [4] (100 μg/mL trypsin, equal volumes, agar diffusion vs S. aureus ATCC 25923, n = 3) worked out at 19.6%. The “S. aureus biofilm formation (crystal violet, OD570)” value in [5] is “significantly reduced”. Moreover, the “NPN fluorescence intensity (membrane integrity)” value in data set [6] is “significantly higher than that of the control group and the antibiotic AMP treatment group”. The “total protein content of bacterial culture supernatant” value in [7] is “significantly higher than that of the control group”. For the same substance, the “zone of inhibition (agar diffusion)” value in data set [8] was “produced a zone of inhibition”. Also, in [9], the “number of PI-stained bacteria” value was “significantly increased”. The “number of dead bacteria in the S. aureus biofilm (confocal, SYTO 9/PI)” value in data set [10] was “significantly increased”. In [11] (4×MIC, DiSC3-5 1 μM, ex 622 nm / em 670 nm), the “time to membrane depolarization (DiSC3-5)” value is at most 10 s. In addition, the “DiSC3-5 fluorescence intensity compared with antibiotic AMP” value in data set [11] (comparator AMP 50 μg/mL) was “higher than that produced by the antibiotic AMP”. The “bacterial morphology (SEM/TEM)” value in data set [12] (MPX 1×MIC) is “shrink and leak cell contents”. Further, the “cell membrane of S. aureus (TEM)” value in [12] (MPX 4×MIC, 2 h at 37°C) is given as “severely damaged”. In data set [13], the “effect of Ca2+ and Mg2+ on killing effect of MPX on A. pleuropneumoniae” value is recorded as “significantly inhibit”.

Values taken from article PMC9002018, “The Antimicrobial Peptide MPX Can Kill Staphylococcus aureus, Reduce Biofilm Formation, and Effectively Treat Bacterial Skin Infections in Mice” (Frontiers in Veterinary Science, 2022).
